How the values were obtained:
Assay type in all cases: cell-based
[1] = test system: NF-κB p50; assay: Kinetics of p50 nuclear translocation in LPS-stimulated THP1 cells (immunoblot, densitometry); settings: 100 nM
Protocol: (§1) Compound 50 impairs nuclear accumulation of c-Rel and slightly reduces nuclear accumulation of p50. We examined the nuclear translocation kinetics of NF-κB family members in LPS stimulated cells treated with Compound 50. THP1 cells were stimulated with LPS in either the presence or absence of 100 nM Compound 50, and the distribution of the NF-κB Rel family members was determined by immunoblotting nuclear (n.p.) extracts collected at 5 min, 15 min, 30 min, 1 h, 3 h and 6 h post-treatment. In response to LPS stimulation, p50 translocated into the nucleus as early as 5 minutes post-stimulation and accumulates as time goes on (FIG. 4, immunoblots and FIG. 5 densitometry). […] The experiment examining p65 nuclear translocation is shown in FIG. 6 (immunoblots) and FIG. 7 (densitometry). In LPS stimulated cells, p65 translocated into the nucleus as early as 5 minutes post-stimulation and accumulated to maximum levels at 15-30 minutes post-stimulation. Treatment of LPS-stimulated cells with Compound 50 had no effect on the kinetics of p65 nuclear entry.

[2] = test system: NF-κB p65; assay: Kinetics of p65 nuclear translocation in LPS-stimulated THP1 cells (immunoblot, densitometry); settings: 100 nM
Protocol: as §1

[3] = test system: Rel-B; assay: Rel-B nuclear translocation in IFNγ+LPS-stimulated THP1 cells (immunoblot); settings: 100 nM, 6 h
Protocol: RelB and p52 are two members of Rel family, which are preferentially complexed with each other. To determine the effect of Compound 50 on p52 and Rel-B nuclear translocation, THP1 cells were stimulated with IFNγ+LPS in either the presence or absence of 100 nM Compound 50 and the distribution of p52 and Rel-B was determined by immunoblotting of nuclear at 6 h post-treatment.

[4] = test system: p50; assay: Nuclear p50 in PMA+ionomycin stimulated Jurkat T cells (immunoblot); settings: 100 nM
[5] = test system: p65; assay: Nuclear p65 in PMA+ionomycin stimulated Jurkat T cells (immunoblot); settings: 100 nM
[6] = target: T1, c-Rel (Mus musculus, UniProt P15307); assay: BD TransFactor assay of c-Rel DNA-binding activity in nuclear extracts of RAW 264.7 cells; settings: LPS/IFNγ, 1000 nM, 30 min pre-treatment, 3 hrs
T1 construct: nuclear extracts from RAW cells stimulated with LPS/IFNγ; endogenous in cells; host or cells: RAW264.7
T1 sequence (P15307 whole entry): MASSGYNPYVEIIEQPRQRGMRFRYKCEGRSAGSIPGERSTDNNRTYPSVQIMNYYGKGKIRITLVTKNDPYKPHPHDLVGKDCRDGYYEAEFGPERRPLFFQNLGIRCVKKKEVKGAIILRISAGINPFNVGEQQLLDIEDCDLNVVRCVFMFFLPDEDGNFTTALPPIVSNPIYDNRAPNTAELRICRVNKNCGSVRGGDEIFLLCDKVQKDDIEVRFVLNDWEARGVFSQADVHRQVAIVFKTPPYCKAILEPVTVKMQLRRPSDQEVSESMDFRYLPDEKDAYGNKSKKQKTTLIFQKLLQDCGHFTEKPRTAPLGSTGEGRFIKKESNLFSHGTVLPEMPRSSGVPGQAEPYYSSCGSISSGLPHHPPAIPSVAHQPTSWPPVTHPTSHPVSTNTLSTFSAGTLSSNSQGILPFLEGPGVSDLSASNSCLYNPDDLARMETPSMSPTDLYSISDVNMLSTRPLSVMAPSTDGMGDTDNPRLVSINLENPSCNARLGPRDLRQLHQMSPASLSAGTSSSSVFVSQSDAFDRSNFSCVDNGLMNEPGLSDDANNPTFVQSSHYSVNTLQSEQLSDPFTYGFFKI
Protocol: In this study, we examined the effect of Compound 50 on the DNA-binding activity of nuclear c-Rel. The BD transfactor assay (a non-radioactive version of a super-shift assay) was used to measure the DNA-binding activity of c-Rel. In this assay, nuclear extracts are added to biotinylated double-stranded oligonucleotides containing the NF-κB binding site bound to a streptavidin 96-well plate. Detection of the transcription factor-DNA complex is performed with a specific primary antibody for c-Rel. The 96-well format allows for simultaneous measurement of multiple conditions and proteins using HRP-conjugated secondary antibodies whose enzymatic product can be measured using a luminometer. The level of c-Rel DNA-binding activity increased 40-fold (relative to DMSO control) in nuclear extracts from RAW cells stimulated with LPS/IFNγ.
Methods: 20×10^6 Raw 264.7 cells were treated with either DMSO, LPS/IFNγ, or LPS/IFNγ/Compound 50. (LPS conc. 1 ug/ml f.c.; mouse IFNγ mouse 100 U/ml f.c, Compound 501 uM f.c). (LPS: Sigma Cat # L2654. Mouse IFNγ; Cat # R+D 485-MICF). […]
After measurement of protein concentration using BioRad assay, the nuclear extract was used in a Chemiluminescent NF-κB TransFactor Kit (BD) according to the user manual. […] Finally, amount of bound antibody to the plate was detected by incubation with chemiluminescent substrate and subsequent detection with a luminometer. […]

[7] = target: T1, c-Rel; assay: Immunoblot and densitometry of nuclear c-Rel in LPS/IFNγ-stimulated Raw264.7 cells; settings: Raw264.7, LPS/IFNγ, immunoblot densitometry
Protocol: Methods: 20×10^6 Raw 264.7 cells were treated with either DMSO, LPS/IFNγ, or LPS/IFNγ/Compound 50. (LPS conc. 1 ug/ml f.c.; mouse IFNγ mouse 100 U/ml f.c, Compound 501 uM f.c). (LPS: Sigma Cat # L2654. Mouse IFNγ; Cat # R+D 485-MICF). Cells were pre-treated with Compound 50 for 30 min, then LPS/IFNγ was added. After 3 hrs, nuclear and cytoplasmic extracts were prepared according to the BD™ TransFactor Extraction Kit and user manual. Briefly, cells were washed in PBS, harvested and lysed in hypotonic lysis buffer on ice. Cells were then disrupted by drawing the cell suspension through a No. 27 gauge needle 10 times. Next, the cell suspension was centrifuged, and the cytoplasmic extract (supernatant) was collected. The nuclear pellet was then disrupted by resuspension in high salt extraction buffer and was drawn through the needle 10 times. […]
After treatment with Compound 50, nuclear extract and cytoplasmic extract were prepared from 20×10^6 Raw264.7 cells by using Extraction kits from BD Biosciences (Cat. 631921), and above for experimental details. […] Densitometry analysis was performed using Quantity One software from BioRad.
The reduction in c-RelDNA-binding activity correlated with a 40-50% reduction in the levels of nuclear c-Rel as detected by immunoblot analysis (see immunoblot FIG. 14 and densitometry FIG. 15). […]

With `Cc1cccc(/C=N/Nc2cc(N3CCOCC3)nc(OCCc3ccccn3)n2)c1` [Compound 50, N-(3-Methyl-benzylidene)-N′-[6-morpholin-4-yl-2-(2-pyridin-2-yl-ethoxy)-pyrimidin-4-yl]-hydrazine] the “kinetics of p50 nuclear entry” value ([1]; 5 minutes to 1 hr post-stimulation) was “no effect”, the “nuclear p50 protein levels” value ([1]; 3 hours) was “small decrease” and the “kinetics of p65 nuclear entry” value [2] was “no effect”. For the same compound, the “level of nuclear p65 relative to untreated cells” value ([2]; 6 hours) was “small increase”, the “nuclear Rel-B” value [3] was “slightly increased” and the “nuclear levels of p50” value [4] was “slightly reduced”. The “nuclear p65 levels” value [5] was “unchanged”, the “reduction in the level of c-Rel DNA-binding activity” value [6] was 40% and the “reduction in the levels of nuclear c-Rel” value [7] was 40-50%.
